Measurements: the NIST ThermoML archive (doi:10.1016/j.fluid.2017.03.011)

How the values were obtained:
[1] = an = ratio of the nth substance listed; conditions: 101 kPa, Liquid, a2 = 3; for electrical conductivity: Alternating current cell with electrodes; for viscosity: Falling or rolling sphere viscometry; for speed of sound: Sing-around technique in a fixed-path interferometer; for mass density: Vibrating tube method
[2] = refractive index (Na D-line) (dimensionless); an = ratio of the nth substance listed; conditions: 101 kPa, Liquid, Standard Abbe refractometry, a2 = 3

CCC[N+](CCC)(CCC)Cc1ccccc1.[Cl-] [benzyltripropylammonium chloride] + Oc1ccccc1
Conditions	electrical conductivity, [1] [S/m]	mass density, [1] [kg/m3]	refractive index, [2]	speed of sound, [1] [m/s]	viscosity, [1] [mPa·s]
293.15 K	0.0213	1060.26	1.5486	1699.7	638.4
298.15 K	0.0295	1056.98	1.5471	1679.8	381.5
303.15 K	0.0397	1053.73	1.5452	1661.7	237.1
308.15 K	0.0523	1050.47	1.5436	1644.5	156.7
313.15 K	0.0669	1047.19	1.542	1628	107
318.15 K	0.0838	1043.91	1.5403	1611.9	76.8
323.15 K	0.0999	1040.64	1.5386	1596.2	57.6
328.15 K	0.118	1037.37	1.5369	1580.7	43.1
333.15 K	0.138	1034.12	1.5352	1565.5	32.6
338.15 K	0.162	1030.87	1.5334	1550.5	25.8
343.15 K	0.183	1027.64	1.5317	1536.1	20.4

CCC[N+](CCC)(CCC)Cc1ccccc1.[Cl-] [benzyltripropylammonium chloride] + OCCO
Conditions	electrical conductivity, [1] [S/m]	mass density, [1] [kg/m3]	refractive index, [2]	speed of sound, [1] [m/s]	viscosity, [1] [mPa·s]
293.15 K	0.0734	1063.63	1.4981	1762.4	327.9
298.15 K	0.0883	1060.58	1.4965	1746.5	229.2
303.15 K	0.105	1057.52	1.4952	1731	164.6
308.15 K	0.125	1054.44	1.4939	1715.9	121
313.15 K	0.146	1051.35	1.4924	1701.1	90.8
318.15 K	0.17	1048.27	1.4911	1686.4	70.6
323.15 K	0.2	1045.19	1.4895	1671.9	54.4
328.15 K	0.228	1042.11	1.4879	1657.5	42.1
333.15 K	0.26	1039.03	1.4864	1643.3	33.5
338.15 K	0.292	1035.95	1.4849	1629.2	27
343.15 K	0.328	1032.88	1.4831	1615.7	22.2

CCC[N+](CCC)(CCC)Cc1ccccc1.[Cl-] [benzyltripropylammonium chloride] + CC(O)C(=O)O
Conditions	electrical conductivity, [1] [S/m]	mass density, [1] [kg/m3]	refractive index, [2]	speed of sound, [1] [m/s]	viscosity, [1] [mPa·s]
293.15 K	0.0011	1120.61	1.4944	1658.2	–
298.15 K	0.0018	1117.05	1.4926	1640.8	–
303.15 K	0.003	1113.49	1.4908	1624.7	2276.7
308.15 K	0.0047	1109.92	1.4892	1607.9	1288.3
313.15 K	0.0071	1106.36	1.4876	1592.5	780.5
318.15 K	0.0103	1102.71	1.4858	1577.6	489.2
323.15 K	0.0146	1099.19	1.4844	1563.7	319
328.15 K	0.0201	1095.66	1.4824	1550.1	215.6
333.15 K	0.0267	1092.1	1.4811	1537.3	150.6
338.15 K	0.035	1088.54	1.4791	1525.1	108.5
343.15 K	0.0443	1084.99	1.4778	1513.6	81.3

CCC[N+](CCC)(CCC)Cc1ccccc1.[Cl-] [benzyltripropylammonium chloride] + OCC(O)CO
Conditions	electrical conductivity, [1] [S/m]	mass density, [1] [kg/m3]	refractive index, [2]	speed of sound, [1] [m/s]	viscosity, [1] [mPa·s]
293.15 K	0.0058	1133.02	1.5051	1898.3	–
298.15 K	0.0085	1129.97	1.5036	1868.9	–
303.15 K	0.0117	1126.92	1.5026	1844.9	1890.5
308.15 K	0.016	1123.81	1.5011	1824.4	1179.6
313.15 K	0.022	1120.62	1.4999	1806.5	779.8
318.15 K	0.0289	1117.51	1.4982	1790.1	519.3
323.15 K	0.0374	1114.45	1.4966	1774.7	359.2
328.15 K	0.048	1111.39	1.4953	1760.1	251.6
333.15 K	0.0596	1108.32	1.4936	1745.9	180.1
338.15 K	0.0741	1105.24	1.4922	1732.2	131.4
343.15 K	0.0894	1102.17	1.4908	1719.2	97
